Measurements from patent US20070048367A1, “Herbal composition for treating morning sickness” (MOM Enterprises, Inc., priority 2005, published 2007).
Structures can show the parent of a compound that is named as a salt.

Tested on: morning sickness
Assay: Doctor survey: composition compared with other morning sickness remedies tried during the same pregnancy
Assay type: in vivo, pregnant patients
Settings: for Patients' preference, composition versus the named remedy: overall, in words
Text: Doctors across the United States were each sent four bottles of the composition described herein, and were invited to allow their pregnant patients to try the composition as a remedy for morning sickness. The same doctors were also sent a survey inquiring about the patients'experience with the composition, the other remedies used, and how the composition disclosed herein compared with the other remedies.
The survey also asked about other known morning sickness remedies. […] Some of the other remedies included Reglan® (metochlopramide, commercially available from Robins Co., Richmond, Va.), Emetrol® (dextrose, levulose, phosphoric acid, commercially available from Pfizer, Inc., New York, N.Y.), Mylanta® (calcium carbonate, magnesium hydroxide, commercially available from Johnson & Johnson, Merck Consumer Pharmaceuticals Co., Fort Washington, Pa.), Premesis Rx® (calcium carbonate, vitamin B12, folic acid, vitamin B6, commercially available from KV Pharmaceutical Co., St. Louis, Mo.), Compazine® (prochlorperazine, commercially available from SmithKline Beecham, Philadelphia, Pa.), and meclizine (commercially available under the tradename Antivert® from Pfizer, Inc., New York, N.Y.).
Regardless of whether they tried one or more remedies besides the disclosed composition, each doctor was asked, for each patient: did the composition work 1) better than other products or combinations, 2) better than some, but not as well as others, or 3) not as well as other products or combinations.
Another question in the survey asked the doctors what products each patient took besides the composition, and then whether the composition worked 1) better than other products or combinations, 2) better than some, but not as well as others, or 3) not as well as other products or combinations.

[1] = composition versus the named remedy, the two taken alone or with other remedies
[2] = patients who tried only the named remedy or combination besides the composition
[3] = composition versus the named remedy, the two taken alone or with other remedies, hydrochloride

| Compound | Percent of Patients for whom the Composition Did Not Work as Well [1] [%] | Percent of Patients for whom the Composition worked Better [1] [%] | Patients for whom the composition definitely worked better than the remedy/remedies tried in addition [2] | Patients' preference, composition versus the named remedy | also measured |
| --- | --- | --- | --- | --- | --- |
| CN1CCN(CCCN2c3ccccc3Sc3ccc(Cl)cc32)CC1 [Compazine ®, prochlorperazine] | 29 | 43 | better for 3 patients |  |  |
| Cc1cccc(CN2CCN(C(c3ccccc3)c3ccc(Cl)cc3)CC2)c1 (stereo not drawn) [Meclizine ®, meclizine] | 0 | 100 |  |  |  |
| CC(CN1c2ccccc2Sc2ccccc21)N(C)C (stereo not drawn) [Phenergan ®, promethazine hydrochloride] |  |  | better for 4 patients | prefer | Percent of Patients for whom the Composition Did Not Work as Well [3]: 32%; Percent of Patients for whom the Composition worked Better [3]: 40% |
| CC(CN1c2ccccc2Sc2ccccc21)N(C)C (stereo not drawn) [Promethazine ®, Promethazine] | 100 | 0 |  |  |  |
| CCN(CC)CCNC(=O)c1cc(Cl)c(N)cc1OC [Reglan ®, metochlopramide] | 60 | 0 |  |  |  |
| Cc1ncc(CO)c(CO)c1O.Cl [Vitamin B6, pyridoxine hydrochloride] |  |  |  | like the composition better | Patients for whom the composition definitely worked better than the remedy/remedies tried in addition (in vivo): better for 7 patients; Percent of Patients for whom the Composition Did Not Work as Well (in vivo): 11% |
| Cc1nccn1CC1CCc2c(c3ccccc3n2C)C1=O (stereo not drawn) [Zofran ®, ondansetron hydrochloride] |  | 36 | better for 5 patients | prefer | Percent of Patients for whom the Composition Did Not Work as Well [3]: 42%; Percent of Patients for whom the Composition Did Not Work as Well (composition versus the named remedy, the two taken alone or with other remedies, listed as Zofran®, hydrochloride): at least 36% |
